Test results taken from paper PMC12444472, “BCI inhibits MKP3 by targeting the kinase-binding domain and disrupting ERK2 interaction” (The Journal of Biological Chemistry, 2025).
“Also recorded” adds a separate entry of the source.

Assays:
[1] = biological target: T1, MKP5^CD (Homo sapiens, UniProt Q9Y6W6); test: MST affinity measurement; type: binding
T1 construct: MKP5(320–467) (MKP5^CD); made in house; host or cells: Escherichia coli BL21(DE3)
T1 sequence (Q9Y6W6 320-467): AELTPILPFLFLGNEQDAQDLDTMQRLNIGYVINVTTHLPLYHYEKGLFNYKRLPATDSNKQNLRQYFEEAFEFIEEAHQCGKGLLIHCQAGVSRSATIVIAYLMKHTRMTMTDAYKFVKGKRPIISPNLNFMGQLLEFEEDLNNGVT
Procedure: (§1) MST measurements were performed using fluorescently labeled proteins and the inhibitor BCI (CAS: 1245792-51-1; TargetMol) on a Monolith instrument (NanoTemper Technologies). The RED–Tris–NTA second-generation dye was dissolved in MST buffer (20 mM Hepes, pH 7.4, 200 mM NaCl, and 0.05% Tween-20) to prepare a 5 μM stock solution. Fluorescent labeling of MKP proteins followed the standard protocol of the MO-L018 RED–Tris–NTA protein labeling kit, leveraging the His-tag–dye interaction.
(§2) The BCI compound was prepared as a 600 to 750 μM stock solution in MST buffer with 10% DMSO to enhance solubility, followed by a 16-point serial dilution. The diluted BCI solutions were thoroughly mixed with labeled MKP proteins (50 nM) at a 1:1 volume ratio, yielding a final volume of 10 μl. The reaction mixtures were incubated in the dark for 10 min at room temperature before being loaded into standard glass capillaries. Measurements were carried out on the Monolith instrument (100% LED, 40% IR laser power) with a 20 s laser on time. The normalized fluorescence values from triplicate measurements were averaged at each concentration and fitted to a 1:1 binding model using the KD model in MO.Affinity software (v3.0.5, NanoTemper Technologies) to determine the binding affinities between MKP proteins and the BCI inhibitor. […]

[2] = biological target: T2, MKP3^CD (Homo sapiens, UniProt Q16828); test: MST affinity measurement; type: binding
T2 construct: ^15N-labeled MKP3^1–154, MKP3^14–152, MKP3^204–350; made in house; host or cells: Escherichia coli BL21(DE3)
T2 sequence (Q16828 204-350): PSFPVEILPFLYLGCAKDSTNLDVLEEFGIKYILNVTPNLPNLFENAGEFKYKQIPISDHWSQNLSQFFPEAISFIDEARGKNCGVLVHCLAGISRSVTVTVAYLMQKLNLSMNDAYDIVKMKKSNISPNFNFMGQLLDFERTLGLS
Procedure: as §1, §2

[3] = system: MKP3; conditions: cited from earlier work
[4] = biological target: T3, MKP3^FL (Homo sapiens, UniProt Q16828); test: Phosphatase activity toward pERK2 (coupled MESG assay); type: biochemical; conditions: BCI at concentration 50 times that of pERK2
T3 construct: MKP3(1–381) (MKP3^FL); made in house; host or cells: Escherichia coli BL21(DE3)
T3 sequence (Q16828 1-381): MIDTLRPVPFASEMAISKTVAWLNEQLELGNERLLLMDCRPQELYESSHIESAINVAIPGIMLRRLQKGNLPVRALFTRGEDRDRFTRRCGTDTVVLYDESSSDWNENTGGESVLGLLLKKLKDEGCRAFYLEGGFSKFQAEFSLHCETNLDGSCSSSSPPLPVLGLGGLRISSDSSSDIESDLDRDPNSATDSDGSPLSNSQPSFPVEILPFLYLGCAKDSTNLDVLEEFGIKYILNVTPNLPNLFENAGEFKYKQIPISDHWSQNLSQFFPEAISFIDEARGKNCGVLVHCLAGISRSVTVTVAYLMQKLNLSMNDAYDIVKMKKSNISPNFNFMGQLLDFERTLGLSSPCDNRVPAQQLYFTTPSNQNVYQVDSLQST
Procedure: (§3) The phosphatase activity of MKP3 (0.5 μM) toward pERK2 (0.5 μM) was measured using a coupled assay, in which phosphate released from the substrate was transferred to 7-methyl-6-thioguanosine (MESG) by purine nucleoside phosphorylase. Assays were performed in a reaction mixture containing 50 mM Mops (pH 7.0), 100 mM NaCl, 0.1 mM EDTA, 100 μM MESG, 4 μM purine nucleoside phosphorylase, and varying concentrations of BCI, as indicated in Figure 5. Dephosphorylation was monitored by measuring absorbance changes at 360 nm, reflecting the conversion of MESG to 7-methyl-6-thioguanine in the presence of inorganic phosphate. Phosphate quantification was performed using an extinction coefficient of 11,200 M^-1 cm^-1 at 360 nm.
(§4) Stock solutions of BCI (dissolved in DMSO) at different concentrations were prepared to maintain a constant DMSO concentration across all BCI concentrations in the phosphatase inhibition assays, thereby eliminating potential effects of varying DMSO levels on detection. Initial reaction rates were determined from the linear slope of progress curves, and the data were analyzed using nonlinear regression. Kinetic parameters (kcat and Km) were obtained by fitting the data to the Michaelis–Menten equation: v0 = kcat[E][S]/(Km + [S]). […]

[5] = biological target: T2, MKP3^CD; test: as above; type: biochemical; conditions: initial velocities in absence and presence of BCI, n = 3
Procedure: as §3, §4

SMILES: O=C1/C(=C/c2ccccc2)C(NC2CCCCC2)c2ccccc21 (stereo not drawn) [BCI, (E)-2-benzylidene-3-(cyclohexylamino)-2,3-dihydro-1H-inden-1-one]
- binding by MST [1]: no interaction was detected
- binding by MST [2]: no detectable binding; also recorded: no binding was detected
- effect on ERK2-mediated MKP3 activity ([3]; ERK2-stimulated, OMFP substrate): inhibits
- effect on MKP3's basal activity toward OMFP ([3]; basal, without ERK2): does not affect
- extension of pERK2 dephosphorylation time [4]: more than 20 fold
- effect on MKP3^CD activity toward pERK2 [5]: no effect
